Measured values reported in patent US20110081315A1, “NOVEL MACROCYCLIC INHIBITORS OF HEPATITIS C VIRUS REPLICATION” (INTERMUNE, INC., priority 2009, published 2011).

Experiments:
hepatitis C replicon = hepatitis C replicon EC50 assay; format: cell-based; settings: Hepatitis C virus; hepatitis C replicon; read-out: EC50
Method in brief: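 First, NS3 and NS4 are complexed; test compounds are then titrated against the complex at room temperature (23° C.) in Tris-HCl buffer, pH 7.5, supplemented with glycerol (15%), LDAO (0.6 mM), DTT (10 mM) and NS4A peptide (25 μM) to give IC50. Separately, replicon cells give EC50.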

NS3/NS4 complexes = NS3/NS4 complexes (Hepatitis C virus genotype 1a, UniProt P27958); experiment: NS3/NS4 inhibition assay (IC50); format: biochemical; settings: NS3/NS4 activity; 23° C., 25 μM NS4A peptide
Sequence of NS3/NS4 complexes (P27958 1027-1657, one chain of several): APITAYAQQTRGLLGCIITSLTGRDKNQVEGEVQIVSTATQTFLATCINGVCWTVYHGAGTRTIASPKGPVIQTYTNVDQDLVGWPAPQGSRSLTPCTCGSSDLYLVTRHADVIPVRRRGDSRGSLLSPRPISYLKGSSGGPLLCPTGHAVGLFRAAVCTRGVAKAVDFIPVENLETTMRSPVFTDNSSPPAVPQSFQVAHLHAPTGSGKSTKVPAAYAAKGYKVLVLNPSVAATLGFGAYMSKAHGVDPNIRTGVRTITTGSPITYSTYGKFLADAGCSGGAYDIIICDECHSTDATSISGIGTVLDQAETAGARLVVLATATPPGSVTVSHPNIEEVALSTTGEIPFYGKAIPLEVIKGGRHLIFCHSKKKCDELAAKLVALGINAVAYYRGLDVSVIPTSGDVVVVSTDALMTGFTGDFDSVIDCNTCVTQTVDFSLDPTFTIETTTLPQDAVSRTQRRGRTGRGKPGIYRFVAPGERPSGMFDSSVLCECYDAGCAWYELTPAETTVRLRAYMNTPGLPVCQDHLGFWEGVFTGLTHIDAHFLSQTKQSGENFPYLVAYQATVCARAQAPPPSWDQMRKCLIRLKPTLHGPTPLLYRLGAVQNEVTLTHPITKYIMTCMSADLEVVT
Method in brief: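 Read-outs are IC50 for inhibition of the NS3/NS4 complex and EC50 in an HCV replicon system. Biochemical runs use 23° C. and a 50 mM Tris-HCl (pH 7.5) buffer with 15% glycerol, 10 mM DTT, 0.6 mM LDAO and 25 μM NS4A peptide.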

SMILES	EC50 (hepatitis C replicon)	IC50 (NS3/NS4 complexes)
COc1ccc2c(O[C@@H]3C[C@H]4C(=O)N[C@]5(C(=O)NS(=O)(=O)C6(C)CC6)C[C@H]5/C=C\CCCCC[C@H](Nc5cccc(-c6ncco6)c5)C(=O)N4C3)cc(-c3nc(C(C)C)cs3)nc2c1C [Compound 128]	< 10 nM	< 10 nM
CC(C)n1c(O[C@@H]2C[C@H]3C(=O)N[C@]4(C(=O)NS(=O)(=O)N(C)C)C[C@H]4/C=C\CCCCC[C@H](NC(=O)OC(C)(C)C)C(=O)N3C2)nc2c(-c3nc4c(s3)CCCC4(C)C)cccc21 [Compound 1775]	10 to 100 nM	< 10 nM
COc1ccc2c(O[C@@H]3C[C@H]4C(=O)N[C@]5(C(=O)NS(=O)(=O)C6(C)CC6)C[C@H]5/C=C\CCCCC[C@H](Nc5cccc(F)c5)C(=O)N4C3)nc(-c3nc(C(C)C)cs3)cc2c1 [Compound 1004]	10 to 100 nM	< 10 nM
CC(C)n1c(O[C@@H]2C[C@H]3C(=O)N[C@]4(C(=O)NS(=O)(=O)C5(C)CC5)C[C@H]4/C=C\CCCCC[C@H](NC(=O)OC(C)(C)C)C(=O)N3C2)nc2c(-c3nc(-c4ccc(F)cc4)cs3)cccc21 [Compound 1711]	< 10 nM	< 10 nM
COc1ccc(-c2csc(-c3cccc4c3nc(O[C@@H]3C[C@H]5C(=O)N[C@]6(C(=O)NS(=O)(=O)C7(C)CC7)C[C@H]6/C=C\CCCCC[C@H](NC(=O)OC(C)(C)C)C(=O)N5C3)n4C(C)C)n2)cc1 [Compound 1715]	10 to 100 nM	< 10 nM
CC(C)n1c(O[C@@H]2C[C@H]3C(=O)N[C@]4(C(=O)NS(=O)(=O)C5CC5)C[C@H]4/C=C\CCCCC[C@H](NC(=O)OC(C)(C)C)C(=O)N3C2)nc2c(-c3nccs3)cccc21 [Compound 211]	< 10 nM	< 10 nM
COc1ccc2c(O[C@@H]3C[C@H]4C(=O)N[C@]5(C(=O)NS(=O)(=O)C6(C)CC6)C[C@H]5/C=C\CCCCC[C@H](Nc5cccc(C(=O)N6CCN(C(=O)c7ccccc7)CC6)c5)C(=O)N4C3)cc(-c3nc(C(C)C)cs3)nc2c1C [Compound 115]	< 10 nM	< 10 nM
CC(C)n1c(O[C@@H]2C[C@H]3C(=O)N[C@]4(C(=O)NS(=O)(=O)N(C)C)C[C@H]4/C=C\CCCCC[C@H](NC(=O)OC(C)(C)C)C(=O)N3C2)nc2c(-c3ncco3)cccc21 [Compound 227]	< 10 nM	< 10 nM
CCOC(=O)Nc1cccc2c1nc(O[C@@H]1C[C@H]3C(=O)N[C@]4(C(=O)NS(=O)(=O)C5(C)CC5)C[C@H]4/C=C\CCCCC[C@H](Nc4ccccc4)C(=O)N3C1)n2C(C)C [Compound 1409]	< 10 nM	< 10 nM
CC(C)n1c(O[C@@H]2C[C@H]3C(=O)N[C@]4(C(=O)NS(=O)(=O)N(C)C)C[C@H]4/C=C\CCCCC[C@H](NC(=O)OC(C)(C)C)C(=O)N3C2)nc2c(-c3nc(-c4ccc(Cl)cc4)cs3)cccc21 [Compound 1751]	10 to 100 nM	< 10 nM
CC(C)n1c(O[C@@H]2C[C@H]3C(=O)N[C@]4(C(=O)NS(=O)(=O)N(C)C)C[C@H]4/C=C\CCCCC[C@H](NC(=O)OC(C)(C)C)C(=O)N3C2)nc2c(-c3nc(Cc4cccc(Cl)c4)cs3)cccc21 [Compound 1761]	10 to 100 nM	< 10 nM
COc1ccc(Cc2csc(-c3cccc4c3nc(O[C@@H]3C[C@H]5C(=O)N[C@]6(C(=O)NS(=O)(=O)C7(C)CC7)C[C@H]6/C=C\CCCCC[C@H](NC(=O)OC(C)(C)C)C(=O)N5C3)n4C(C)C)n2)cc1OC [Compound 1723]	< 10 nM	< 10 nM
CCn1c(O[C@@H]2C[C@H]3C(=O)N[C@]4(C(=O)NS(=O)(=O)N(C)C)C[C@H]4/C=C\CCCCC[C@H](NC(=O)OC(C)(C)C)C(=O)N3C2)nc2c(-c3nc(C(C)C)cs3)cccc21 [Compound 1430]	10 to 100 nM	< 10 nM
Cc1cc(F)cc(-c2cccc3c2nc(O[C@@H]2C[C@H]4C(=O)N[C@]5(C(=O)NS(=O)(=O)C6(C)CC6)C[C@H]5/C=C\CCCCC[C@H](Nc5ccccc5)C(=O)N4C2)n3C(C)C)c1 [Compound 245]	> 100 nM	< 10 nM
COc1ccc2c(O[C@@H]3C[C@H]4C(=O)N[C@]5(C(=O)NS(=O)(=O)C6(C)CC6)C[C@H]5/C=C\CCCCC[C@H](Nc5cccc(C(=O)N6CCN(c7ccc(C)cc7)CC6)c5)C(=O)N4C3)cc(-c3nc(C(C)C)cs3)nc2c1C [Compound 123]	10 to 100 nM	< 10 nM
CC(C)n1c(O[C@@H]2C[C@H]3C(=O)N[C@]4(C(=O)NS(=O)(=O)N(C)C)C[C@H]4/C=C\CCCCC[C@H](NC(=O)OC(C)(C)C)C(=O)N3C2)nc2c(-c3nc(-c4ccccc4Cl)cs3)cccc21 [Compound 1749]	10 to 100 nM	< 10 nM
COc1ccc2c(O[C@@H]3C[C@H]4C(=O)N[C@]5(C(=O)NS(=O)(=O)C6(C)CC6)C[C@H]5/C=C\CCCCC[C@H](Nc5cccc(C(C)(C)C)c5)C(=O)N4C3)cc(-c3nc(C(C)C)cs3)nc2c1C [Compound 129]	10 to 100 nM	< 10 nM
Cn1ccc2ccc(O[C@@H]3C[C@H]4C(=O)N[C@]5(C(=O)NS(=O)(=O)C6(C)CC6)C[C@H]5/C=C\CCCCC[C@H](NC(=O)OC(C)(C)C)C(=O)N4C3)cc21 [Compound 702]	10 to 100 nM	< 10 nM

SMILES	EC50 (hepatitis C replicon)	IC50 (NS3/NS4 complexes)
Cc1sc(-c2cccc3c2nc(O[C@@H]2C[C@H]4C(=O)N[C@]5(C(=O)NS(=O)(=O)N(C)C)C[C@H]5/C=C\CCCCC[C@H](NC(=O)OC(C)(C)C)C(=O)N4C2)n3C(C)C)nc1C(C)C [Compound 231]	10 to 100 nM	< 10 nM
CC(C)n1c(O[C@@H]2C[C@H]3C(=O)N[C@]4(C(=O)NS(=O)(=O)C5(C)CC5)C[C@H]4/C=C\CCCCC[C@H](NC(=O)OC(C)(C)C)C(=O)N3C2)nc2c(-c3nc(C4CCCCC4)cs3)cccc21 [Compound 1769]	< 10 nM	< 10 nM
CC1(S(=O)(=O)NC(=O)[C@@]23C[C@H]2/C=C\CCCCC[C@H](Nc2ccccc2)C(=O)N2C[C@H](n4nc(Br)c(-c5ccccc5)n4)C[C@H]2C(=O)N3)CC1 [Compound 1505]	> 100 nM	< 10 nM
CC(C)n1c(O[C@@H]2C[C@H]3C(=O)N[C@]4(C(=O)NS(=O)(=O)C5(C)CC5)C[C@H]4/C=C\CCCCC[C@H](NC(=O)OC(C)(C)C)C(=O)N3C2)nc2c(-c3nc(-c4ccc(-c5ccccc5)cc4)cs3)cccc21 [Compound 1716]	10 to 100 nM	< 10 nM
Cc1cc(-c2nc(C(C)C)cs2)c2nc(O[C@@H]3C[C@H]4C(=O)N[C@]5(C(=O)NS(=O)(=O)N(C)C)C[C@H]5/C=C\CCCCC[C@H](NC(=O)OC(C)(C)C)C(=O)N4C3)n(C(C)C)c2c1 [Compound 1436]	10 to 100 nM	< 10 nM
CC(C)n1c(O[C@@H]2C[C@H]3C(=O)N[C@]4(C(=O)NS(=O)(=O)C5(C)CC5)C[C@H]4/C=C\CCCCC[C@H](Nc4ccccc4)C(=O)N3C2)nc2c(-c3ccoc3)cccc21 [Compound 252]	10 to 100 nM	< 10 nM
COc1ccc2c(O[C@@H]3C[C@H]4C(=O)N[C@]5(C(=O)NS(=O)(=O)C6(C)CC6)C[C@H]5/C=C\CCCCC[C@H](Nc5ccc(OC(F)(F)F)c(F)c5)C(=O)N4C3)cc(-c3nc(C(C)C)cs3)nc2c1C (single isomer, unassigned) [Compound 602]	10 to 100 nM	< 10 nM
CC(C)n1c(O[C@@H]2C[C@H]3C(=O)N[C@]4(C(=O)NS(=O)(=O)N(C)C)C[C@H]4/C=C\CCCCC[C@H](NC(=O)OC(C)(C)C)C(=O)N3C2)nc2c(C(=O)NCc3ccccc3)cccc21 [Compound 283]	< 10 nM	< 10 nM
CC(C)n1c(O[C@@H]2C[C@H]3C(=O)N[C@]4(C(=O)NS(=O)(=O)N(C)C)C[C@H]4/C=C\CCCCC[C@H](NC(=O)OC(C)(C)C)C(=O)N3C2)nc2c(NC(=O)OCc3ccccc3)cccc21 [Compound 1428]	< 10 nM	< 10 nM
CC(C)n1c(O[C@@H]2C[C@H]3C(=O)N[C@]4(C(=O)NS(=O)(=O)N(C)C)C[C@H]4/C=C\CCCCC[C@H](NC(=O)OC(C)(C)C)C(=O)N3C2)nc2c(C(=O)NCc3nccs3)cccc21 [Compound 1222]	< 10 nM	< 10 nM
CC(C)n1c(O[C@@H]2C[C@H]3C(=O)N[C@]4(C(=O)NS(=O)(=O)N(C)C)C[C@H]4/C=C\CCCCC[C@H](NC(=O)OC(C)(C)C)C(=O)N3C2)nc2c(-c3nc(Cc4ccc(F)c(F)c4)cs3)cccc21 [Compound 1755]	10 to 100 nM	< 10 nM
CC(C)n1cnc2cc(O[C@@H]3C[C@H]4C(=O)N[C@]5(C(=O)NS(=O)(=O)C6(C)CC6)C[C@H]5/C=C\CCCCC[C@H](NC(=O)OC(C)(C)C)C(=O)N4C3)ccc21 [Compound 297]	> 100 nM	< 10 nM
Cc1nc(-c2cccc3c2nc(O[C@@H]2C[C@H]4C(=O)N[C@]5(C(=O)NS(=O)(=O)C6CC6)C[C@H]5/C=C\CCCCC[C@H](NC(=O)OC(C)(C)C)C(=O)N4C2)n3C(C)C)sc1C [Compound 217]	< 10 nM	< 10 nM
CC(C)n1c(O[C@@H]2C[C@H]3C(=O)N[C@]4(C(=O)NS(=O)(=O)C5(C)CC5)C[C@H]4/C=C\CCCCC[C@H](Nc4cccc(C(C)(C)C)c4)C(=O)N3C2)nc2ccccc21 [Compound 200]	< 10 nM	< 10 nM
Cc1oc(-c2cccc3c2nc(O[C@@H]2C[C@H]4C(=O)N[C@]5(C(=O)NS(=O)(=O)C6(C)CC6)C[C@H]5/C=C\CCCCC[C@H](NC(=O)OC(C)(C)C)C(=O)N4C2)n3C(C)C)nc1Cc1ccccc1 [Compound 1215]	< 10 nM	< 10 nM
COc1ccc2c(O[C@@H]3C[C@H]4C(=O)N[C@]5(C(=O)NS(=O)(=O)C6(C)CC6)C[C@H]5/C=C\CCCCC[C@H](Nc5cccc(F)c5)C(=O)N4C3)nc(-c3nc(C(C)C)cs3)nc2c1C [Compound 901]	< 10 nM	< 10 nM
CC(C)n1c(O[C@@H]2C[C@H]3C(=O)N[C@]4(C(=O)NS(=O)(=O)C5(C)CC5)C[C@H]4/C=C\CCCCC[C@H](NC(=O)OC(C)(C)C)C(=O)N3C2)nc2c(-c3nc(Cc4ccccc4)cs3)cccc21 [Compound 1767]	< 10 nM	< 10 nM
